Measured values taken from patent publication US12371428B2 (Exelixis, Inc., priority 2019, dated 2025).

Legend:
[1] = target: KDR (phospho-KDR, VEGF165-stimulated HUVEC cells) (Homo sapiens (Human), UniProt P35968); experiment: KDR autophosphorylation ELISA in HUVEC cells (Example G); type: cell-based; conditions: cellular activity; KDR autophosphorylation ELISA in HUVEC cells
Summary of the method: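 Read-out: phospho-KDR in cell lysates by DuoSet IC ELISA, normalised between VEGF-stimulated DMSO wells (100%) and unstimulated wells (0%). Human endothelial cells were starved overnight in serum-free medium, exposed to compound for 1 h, and then pulsed with 100 ng/mL VEGF165 for 5 min.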

[2] = target: Human MET (residues 956-1390) (Homo sapiens (Human), UniProt P08581); experiment: Human Met kinase assay, HTRF KinEase (Example D-2); type: biochemical; conditions: protocol of Example D-2 (other compounds); read-out: c-Met IC50
Sequence of Human MET (residues 956-1390) (P08581 956-1390): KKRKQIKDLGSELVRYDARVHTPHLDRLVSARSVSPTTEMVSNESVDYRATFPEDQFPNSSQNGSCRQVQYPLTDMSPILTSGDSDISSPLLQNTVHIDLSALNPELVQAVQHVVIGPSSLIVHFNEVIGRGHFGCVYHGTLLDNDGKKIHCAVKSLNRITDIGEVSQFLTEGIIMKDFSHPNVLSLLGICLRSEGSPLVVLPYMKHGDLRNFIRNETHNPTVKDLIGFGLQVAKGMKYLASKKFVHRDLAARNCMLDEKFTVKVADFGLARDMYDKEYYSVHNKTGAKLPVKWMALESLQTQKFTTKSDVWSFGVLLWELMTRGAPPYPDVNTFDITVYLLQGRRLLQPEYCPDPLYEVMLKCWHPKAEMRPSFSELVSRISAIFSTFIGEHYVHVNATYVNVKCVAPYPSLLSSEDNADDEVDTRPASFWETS
Summary of the method: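 MET kinase domain (956-1390), 0.1 ng/well, in buffer with 5 mM MgCl2, 1 mM DTT and 1 mM MnCl2, phosphorylated a biotinylated peptide at ATP Km for 40 min at RT; 10 concentrations, 3% DMSO final. EDTA-stopped HTRF read after 60 min; IC50 from a 4-parameter logistic fit.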

[3] = target: Met (phospho-Met, HGF-stimulated PC-3 prostate cancer cells) (Homo sapiens (Human), UniProt P08581); experiment: Met autophosphorylation ELISA in PC-3 cells (Example F); type: cell-based; conditions: cellular activity; Met autophosphorylation ELISA in PC-3 cells; read-out: c-Met IC50
Sequence of Met (phospho-Met, HGF-stimulated PC-3 prostate cancer cells) (P08581 25-1390): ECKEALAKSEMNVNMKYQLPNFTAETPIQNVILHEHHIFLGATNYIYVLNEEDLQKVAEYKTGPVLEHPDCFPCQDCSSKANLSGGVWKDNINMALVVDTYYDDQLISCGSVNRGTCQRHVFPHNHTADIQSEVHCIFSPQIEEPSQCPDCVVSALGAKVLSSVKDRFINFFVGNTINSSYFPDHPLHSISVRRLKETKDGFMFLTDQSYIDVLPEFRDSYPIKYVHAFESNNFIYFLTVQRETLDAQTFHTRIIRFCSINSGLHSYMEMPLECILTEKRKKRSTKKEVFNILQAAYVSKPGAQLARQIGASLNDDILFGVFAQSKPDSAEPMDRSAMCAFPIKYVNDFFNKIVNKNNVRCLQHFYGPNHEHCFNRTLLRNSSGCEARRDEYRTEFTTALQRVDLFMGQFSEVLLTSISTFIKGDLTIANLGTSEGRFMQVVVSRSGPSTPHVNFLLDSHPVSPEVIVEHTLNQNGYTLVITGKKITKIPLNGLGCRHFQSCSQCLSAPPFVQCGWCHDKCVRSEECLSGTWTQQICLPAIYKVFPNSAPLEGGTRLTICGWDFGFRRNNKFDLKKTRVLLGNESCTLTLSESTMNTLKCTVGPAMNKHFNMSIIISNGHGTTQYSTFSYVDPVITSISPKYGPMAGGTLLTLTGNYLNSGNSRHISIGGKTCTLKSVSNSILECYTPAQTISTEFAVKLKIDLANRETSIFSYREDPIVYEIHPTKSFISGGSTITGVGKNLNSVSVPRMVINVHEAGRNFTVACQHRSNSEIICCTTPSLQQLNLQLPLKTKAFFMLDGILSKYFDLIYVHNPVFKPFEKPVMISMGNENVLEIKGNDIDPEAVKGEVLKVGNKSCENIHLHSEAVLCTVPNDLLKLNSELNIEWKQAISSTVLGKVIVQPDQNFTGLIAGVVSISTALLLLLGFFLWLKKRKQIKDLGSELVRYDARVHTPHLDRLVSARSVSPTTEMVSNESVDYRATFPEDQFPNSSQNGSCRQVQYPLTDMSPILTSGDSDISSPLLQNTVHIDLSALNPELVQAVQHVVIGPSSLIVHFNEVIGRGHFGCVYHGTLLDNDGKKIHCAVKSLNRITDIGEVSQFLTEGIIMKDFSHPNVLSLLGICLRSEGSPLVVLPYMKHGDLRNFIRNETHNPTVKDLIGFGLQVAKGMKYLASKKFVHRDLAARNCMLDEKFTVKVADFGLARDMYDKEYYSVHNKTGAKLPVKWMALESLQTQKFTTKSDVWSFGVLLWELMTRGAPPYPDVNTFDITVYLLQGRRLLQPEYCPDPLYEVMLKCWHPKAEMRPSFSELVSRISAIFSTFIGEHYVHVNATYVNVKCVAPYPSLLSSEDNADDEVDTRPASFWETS
Summary of the method: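 PC-3 cells, serum-starved 3 h, were treated with compounds (8-point dose curve, 0.3% DMSO final) for 1 h, then stimulated with 100 ng/mL recombinant human HGF for 10 min. Lysate phospho-Met (panTyr) was quantified by sandwich ELISA; IC50 from 4-parameter logistic fit.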

Sequence of KDR (phospho-KDR, VEGF165-stimulated HUVEC cells) (P35968 20-1356): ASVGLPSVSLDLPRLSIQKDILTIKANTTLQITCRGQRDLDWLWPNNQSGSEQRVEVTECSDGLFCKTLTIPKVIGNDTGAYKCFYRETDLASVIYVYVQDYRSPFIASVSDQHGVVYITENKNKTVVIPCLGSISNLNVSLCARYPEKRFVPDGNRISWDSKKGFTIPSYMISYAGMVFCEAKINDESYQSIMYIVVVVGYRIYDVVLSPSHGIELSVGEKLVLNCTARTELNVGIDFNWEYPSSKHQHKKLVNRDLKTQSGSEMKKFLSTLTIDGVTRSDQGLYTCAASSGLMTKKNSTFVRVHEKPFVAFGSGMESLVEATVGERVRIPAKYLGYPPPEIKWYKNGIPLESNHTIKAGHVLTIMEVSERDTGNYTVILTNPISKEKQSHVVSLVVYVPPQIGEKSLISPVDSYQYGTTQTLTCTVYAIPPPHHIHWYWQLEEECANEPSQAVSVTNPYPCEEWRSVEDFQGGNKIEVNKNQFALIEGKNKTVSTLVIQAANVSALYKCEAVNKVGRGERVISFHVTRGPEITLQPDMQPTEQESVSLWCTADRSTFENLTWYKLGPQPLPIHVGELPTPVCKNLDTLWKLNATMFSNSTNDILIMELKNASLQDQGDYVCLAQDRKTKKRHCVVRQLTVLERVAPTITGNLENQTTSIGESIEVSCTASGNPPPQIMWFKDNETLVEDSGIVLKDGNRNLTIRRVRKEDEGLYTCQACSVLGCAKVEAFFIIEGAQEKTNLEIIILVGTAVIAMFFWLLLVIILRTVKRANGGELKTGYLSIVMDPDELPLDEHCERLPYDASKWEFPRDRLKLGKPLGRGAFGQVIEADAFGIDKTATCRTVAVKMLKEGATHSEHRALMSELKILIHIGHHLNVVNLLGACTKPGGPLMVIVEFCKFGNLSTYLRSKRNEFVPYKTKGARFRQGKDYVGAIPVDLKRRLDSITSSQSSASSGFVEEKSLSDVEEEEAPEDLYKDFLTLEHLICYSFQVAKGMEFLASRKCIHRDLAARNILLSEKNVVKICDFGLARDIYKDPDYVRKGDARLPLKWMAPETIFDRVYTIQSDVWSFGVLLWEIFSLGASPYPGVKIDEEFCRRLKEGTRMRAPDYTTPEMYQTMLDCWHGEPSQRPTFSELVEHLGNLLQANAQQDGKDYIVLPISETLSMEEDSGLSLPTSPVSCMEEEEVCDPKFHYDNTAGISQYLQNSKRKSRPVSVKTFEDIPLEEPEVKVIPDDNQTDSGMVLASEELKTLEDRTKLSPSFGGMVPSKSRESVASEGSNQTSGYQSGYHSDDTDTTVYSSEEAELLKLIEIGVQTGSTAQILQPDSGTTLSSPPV

IC50 [1] [nM] | IC50 [2] [nM] | IC50 [3] [nM] | SMILES
100 to 300 | 100 to 300 | < 100 | CCOc1c(-c2ccc(F)cc2)cnc(C)c1C(=O)Nc1ccc(Oc2ccnc3cc(OC)c(OC)nc23)c(F)c1 [Compound 403, N-[4-[(6,7-dimethoxy-1,5-naphthyridin-4-yl)oxy]-3-fluorophenyl]-4-ethoxy-5-(4-fluorophenyl)-2-methylpyridine-3-carboxamide]
< 100 | 100 to 300 | < 100 | CCc1cc2nccc(Oc3ccc(NC(=O)c4cnc(C)c(-c5ccc(F)cc5C)c4O)cc3F)c2nc1OC [Compound 421, N-[4-[(7-ethyl-6-methoxy-1,5-naphthyridin-4-yl)oxy]-3-fluorophenyl]-5-(4-fluoro-2-methylphenyl)-4-hydroxy-6-methylpyridine-3-carboxamide]
> 300 | < 100 | < 100 | COc1cc2nccc(Oc3ccc(NC(=O)c4cn(C(C)(C)C)cc(-c5ccc(F)cc5)c4=O)cc3F)c2nc1OC [Compound 48, 1-tert-Butyl-N-[4-[(6,7-dimethoxy-1,5-naphthyridin-4-yl)oxy]-3-fluorophenyl]-5-(4-fluorophenyl)-4-oxopyridine-3-carboxamide]
